Experimental data published in patent publication US7173014B2, “HIV-specific synthetic oligonucleotides and methods of their use” (priority 1997, dated 2007).
Where two headings read alike, the source gives them in different places.

Key:
[1] = test system: clinical strains of HIV-1; test: AZT and ddI sensitivity of clinical strains of HIV-1 (Table 3); format: cell-based
Procedure: To determine the preclinical range of anti-HIV activity of various oligonucleotides of the invention (see TABLE 2), evaluations were performed with Oligo 12 (having SEQ ID NO:1), Oligo 32 (SEQ ID NO:3) and Oligo 41 (SEQ ID NO:6). These evaluations were performed to determine the activity of these compounds against a variety of wild type and drug resistant strains of HIV 1, including both laboratory derived and low passage, clinical strains of virus and T lymphocyte tropic and monocyte macrophage tropic viruses such as those listed below in TABLE 3.

[2] = test system: monocyte-macrophage-tropic strains BaL and ADA; test: Anti-HIV assay in fresh human monocyte-macrophages; format: cell-based, HIV-1
Procedure: In addition to these T-tropic strains, the activity of the compounds was also evaluated against the monocyte-macrophage strains BaL and ADA. Oligos 12 and 32 according to the invention, as well as Oligo 41 are active against low passage clinical T-tropic strains of HIV-1. The activity of the compounds varies from strain to strain. The compounds were not active against the monocyte-macrophage-tropic strains BaL and ADA.
For isolation of adherent cells, 3×10^6 non-PHA stimulated peripheral blood cells were resuspended in Hanks buffered saline (with calcium and magnesium) supplemented with 10% human AB serum. The cells were placed in a 24-well microtiter plate at 37° C. for 2 hours. Non-adherent cells were removed by vigorously washing six times. The adherent cells were cultured for 7 days in RPMI 1640 tissue culture medium with 15% fetal bovine serum. The cultures were carefully monitored for confluency during this incubation period. Infection of the cells was performed with the monocytotropic HIV-1 strains BaL or ADA and the matched pair of AZT-sensitive and AZT-resistant virus isolates. Each of these virus isolates was obtained from the NIAID AIDS Research and Reference Reagent Program. High titer pools of each of these viruses have been harvested from infected cultures of peripheral blood adherent cells and frozen in 1.0 ml aliquots at −80° C. Monocyte-macrophage monolayers were infected at an MOI of 0.1. Compounds to be evaluated in the monocyte-macrophage assay are added to the monolayers shortly before infection in order to maximize the potential for identifying active compounds.
At 2 days post-infection, the medium was decanted and the cultures washed twice with complete medium in order to remove excess virus. […] Control curves are generated in each assay to accurately quantify the amount of capsid protein in each sample. Data was obtained by spectrophotometric analysis at 450 nm using a plate reader (Molecular Devices Vmax). P24 concentrations were calculated from the optical density values by use of the Molecular Device software package Soft Max.

HIV-1 (IIIB, RF and SK1) = test: XTT-based anti-HIV assay, laboratory strains of HIV-1; format: cell-based
Description: (§1) The initial experiment performed involved evaluation of Oligos 12, 32, and 41 against three laboratory strains of HIV-1 (IIIB, RF and SK1) and one strain of HIV-2 (ROD) in parallel with the positive control compound ddC in the XTT-based anti-HIV assay. All these oligonucleotides are active against both HIV-1 and HIV-2.
CEM-SS sells (AIDS Research and Reference Reagent Program, NIH) or other established human T cell lines used in these experiments were passaged in T-150 flasks for use in the assay. On the day preceding the assay, the cells were split 1:2 to assure they would be in an exponential growth phase at time of infection. On the day of assay the cells were washed twice with tissue culture medium and resuspended in fresh tissue cultures medium. Total cell and viability counting was performed using a hemacytometer and trypan blue dye exclusion. Cell viability was greater than 95% for the cells to be utilized in the assay. The cells were pelleted and resuspended at 2.5×10^4 cells per ml in tissue culture medium. […]
A pretitered aliquot of virus was removed from the freezer −80° C.) and allowed to thaw slowly to room temperature in a biological safety cabinet. The virus was resuspended and diluted into tissue culture medium such that the amount of virus added to each well in a volume of 50 μl will be the amount determined to give complete cell killing at 6 days post-infection. […]
After 6 days of incubation at 37° C. in a 5% CO2 incubator, the test plates were analyzed by staining with the tetrazolium dye XTT. XTT-tetrazolium is metabolized by the mitochondrial enzymes of metabolically active cells to a soluble formazan product, allowing the rapid quantitative analysis of the inhibition of HIV-induced cell killing by anti-HIV test substances. […]
XTT solution was prepared daily as a stock of 1 mg/ml in PBS. […] Adhesive plate sealers were used in place of the lids, the sealed plate was inverted several times to mix the soluble formazan product and the plate was read spectrophotometrically at A450 nm with a Molecular Devices Vmax plate reader.

HIV-2 (ROD) = test: XTT-based anti-HIV assay, HIV-2; format: cell-based; details: XTT assay
Description: as §1
CEM-SS sells (AIDS Research and Reference Reagent Program, NIH) or other established human T cell lines used in these experiments were passaged in T-150 flasks for use in the assay. On the day preceding the assay, the cells were split 1:2 to assure they would be in an exponential growth phase at time of infection. On the day of assay the cells were washed twice with tissue culture medium and resuspended in fresh tissue cultures medium. Total cell and viability counting was performed using a hemacytometer and trypan blue dye exclusion. Cell viability was greater than 95% for the cells to be utilized in the assay. The cells were pelleted and resuspended at 2.5×10^4 cells per ml in tissue culture medium. Cells were added to the drug-containing plates in a volume of 50 μl.
A pretitered aliquot of virus was removed from the freezer −80° C.) and allowed to thaw slowly to room temperature in a biological safety cabinet. The virus was resuspended and diluted into tissue culture medium such that the amount of virus added to each well in a volume of 50 μl will be the amount determined to give complete cell killing at 6 days post-infection. In general the virus pools produced with the IIIB isolate of HIV required the addition of 5 μl of virus per well.
Each plate contained cell control wells (cells only), virus control wells (cells plus virus), drug toxicity control wells (cells plus drug only), drug colorimetric control wells (drug only) as well as experimental wells (drug plus cells plus virus).
After 6 days of incubation at 37° C. in a 5% CO2 incubator, the test plates were analyzed by staining with the tetrazolium dye XTT. XTT-tetrazolium is metabolized by the mitochondrial enzymes of metabolically active cells to a soluble formazan product, allowing the rapid quantitative analysis of the inhibition of HIV-induced cell killing by anti-HIV test substances. On day 6 post-infection plates were removed from the incubator and observed. The use of round bottom microtiter plates allows rapid macroscopic analysis of the activity of a given test compound by the evaluation of pellet size. The results of the macroscopic observations were confirmed and enhanced by further microscopic analysis.
XTT solution was prepared daily as a stock of 1 mg/ml in PBS. Phenazine methosulfate (PMS) solution was prepared at 15 mg/ml in PBS and stored in the dark at −20° C. XTT/PMS stock was prepared immediately before use by diluting the PMS 1:100 into PBS and adding 40 μl per ml of XTT solution. Fifty microliters of XTT/PMS was added to each well of the plate and the plate was incubated for an additional 4 hours at 37° C. Adhesive plate sealers were used in place of the lids, the sealed plate was inverted several times to mix the soluble formazan product and the plate was read spectrophotometrically at A450 nm with a Molecular Devices Vmax plate reader.

[3] = test system: low passage, clinical strains of HIV-1; test: Anti-HIV activity in fresh human peripheral blood mononuclear cells; format: cell-based; details: fresh human PBMC; varies from strain to strain
Procedure: In another experiment, the anti-HIV activity of Oligos 12, 32, and 41 was evaluated against a variety of low passage, clinical strains of HIV-1 in fresh human peripheral blood mononuclear cells. These strains include viruses obtained from pediatric patients attending the Children's Hospital University of Alabama at Birmingham as well as viruses representative of the various HIV-1 clades found throughout the world, shown below in TABLE 4.
Fresh human peripheral blood lymphocytes (PBL) were isolated from voluntary Red Cross donors, seronegative for HIV and HBV. Leukophoresed blood was diluted 1:1 with Dulbecco's phosphate buffered saline (PBS), layered over 14 ml of Ficoll-Hypaque density gradient in a 50 ml centrifuge tube. Tubes were then centrifuged for 30 minutes at 600×g. Banded PBLs were gently aspirated from the resulting interface and subsequently washed 2× with PBS by low speed centrifugation. After final wash, cells were enumerated by trypan blue exclusion and re-suspended at 1×10^7/ml in RPMI 1640 with 15% Fetal Bovine Serum (FBS), 2 mM L-glutamine, […] PHA-P and allowed to incubate for 48–72 hours at 37° C. After incubation, PBLs were centrifuged and reset in RPMI 1640 with 15% FBS, 2 mM L-glutamine, 100 U/ml penicillin, 100 μg/ml streptomycin, 10 μg/ml gentamycin, and 20 U/ml recombinant human IL-2. PBLs were maintained in this medium at a concentration of 1–2×10^6/ml with bi-weekly medium changes, until use in assay protocol. […]
In the standard PBL assay (MOI: 0.2), the assay was ended on day 7 following collection of cell free supernatant samples for reverse transcriptase activity assay. In the low MOI PBL assay (MOI: 0.02), supernatant samples were collected on day 6, day 11, and day 14 post-infection and analyzed for RT activity. […] Opti-Fluor O was added to each sample and incorporated radioactivity was quantified utilizing a liquid scintillation counter, (Wallac 1450 Microbetaplus, Gaithersburg, Md.).

## O=c1[nH]cnc2c1ncn2[C@H]1CC[C@@H](CO)O1 [ddi, dideoxyinosine]
[1]; isolate BAKI, tropism L, read-out: ddi IC50
  IC50: 2610 nM
[1]; isolate ROJO, tropism L, read-out: ddi IC50
  IC50: 870 nM
[1]; isolate ROMA, tropism M, read-out: ddi IC50
  IC50: 160 nM
[1]; isolate SLKA, tropism M, read-out: ddi IC50
  IC50: 320 nM
[1]; isolate STDA, tropism L, read-out: ddi IC50
  IC50: 230 nM
[1]; isolate TEKI, tropism L, read-out: ddi IC50
  IC50: 370 nM
[1]; isolate TEKI, tropism M, read-out: ddi IC50
  IC50: 1700 nM
[1]; isolate VIHU, tropism L, read-out: ddi IC50
  IC50: 1210 nM
[1]; isolate WEJO, tropism L, read-out: ddi IC50
  IC50: 2180 nM
[1]; isolate WOME, tropism L, read-out: ddi IC50
  IC50: 410 nM

## CGCACCCATCTCTCTCCUUCU (chemistry not given here) [Oligo 32]
[2]
  activity against monocyte-macrophage-tropic strains BaL and ADA: not active
HIV-1 (IIIB, RF and SK1)
  activity against HIV-1: active
HIV-2 (ROD); compared with the HIV-1 strains
  level of activity against the HIV-2 strain ROD: enhanced level of activity
HIV-2 (ROD); strain ROD
  activity against HIV-2: active
[3]
  activity against low passage clinical T-tropic strains of HIV-1: active

## Cc1cn([C@H]2C[C@H](N=[N+]=[N-])[C@@H](CO)O2)c(=O)[nH]c1=O [AZT, 3′-azido-3′-deoxythymidine]
[1]; Human immunodeficiency virus 1, isolate BAKI, tropism L, read-out: AZT IC50
  IC50: 49 nM
[1]; Human immunodeficiency virus 1, isolate BLCH, tropism L, read-out: AZT IC50
  IC50: 10 nM
[1]; Human immunodeficiency virus 1, isolate DEJO, tropism L, read-out: AZT IC50
  IC50: 15 nM
[1]; Human immunodeficiency virus 1, isolate RIARL, tropism L, read-out: AZT IC50
  IC50: 10 nM
[1]; Human immunodeficiency virus 1, isolate ROJO, tropism L, read-out: AZT IC50
  IC50: 16 nM
[1]; Human immunodeficiency virus 1, isolate ROMA, tropism M, read-out: AZT IC50
  IC50: 16 nM
[1]; Human immunodeficiency virus 1, isolate SLKA, tropism M, read-out: AZT IC50
  IC50: 25 nM
[1]; Human immunodeficiency virus 1, isolate STDA, tropism L, read-out: AZT IC50
  IC50: 17 nM
[1]; Human immunodeficiency virus 1, isolate TEKI, tropism L, read-out: AZT IC50
  IC50: 29 nM
[1]; Human immunodeficiency virus 1, isolate TEKI, tropism M, read-out: AZT IC50
  IC50: 16 nM
[1]; Human immunodeficiency virus 1, isolate VIHU, tropism L, read-out: AZT IC50
  IC50: 16 nM
[1]; Human immunodeficiency virus 1, isolate WEJO, tropism L, read-out: AZT IC50
  IC50: 56 nM
[1]; Human immunodeficiency virus 1, isolate WOME, tropism L, read-out: AZT IC50
  IC50: 16 nM
